Results on six molecules are retold here after paper PMC5617480 (Oncotarget, 2017).

The term ΔTm denotes the change in melting temperature against a reference sample.

For assay [1], the system named is FPu18T (DNA, G4) AGGGTGGGGAGGGTGGGG
The assay is described as follows: FRET melting. Conditions: 100 mM K+; 10 mM Tris-HCl, pH 7.35; 2.0 μM compound, 1.0 μM DNA.

The test system of assay [2] is HTG21 (human telomeric) G4. The assay is described as follows: FID assay. Conditions: for HTG21DC50: FID; for ctDNADC50/HTG21DC50: FID selectivity ratio. It is filed as binding. How it is done: (§1) We asked whether chiral platinum(II) complexes 4–6 have the ability to bind to G-quadruplex DNA. To address this, FRET assays, CD spectroscopy, G4-FID assays, and fluorescence titration analysis were performed. […] For G4-HTG21, the ^G4DC50 values of complexes 4–6 were 1.23, 1.26 and 0.99 μM, respectively; while, for G4-Pu27, the ^G4DC50 values were 1.01, 0.89, and 0.82 μM, respectively. In addition, the ^ctDNADC50/^G4DC50 ratio of the HTG21 and Pu27 G4s treated with complexes 4–6 was in the range of 50.54-90.65 and 71.56-110.67 folds, respectively. To further evaluate the binding ability of complexes 4–6 to Pu27 and HTG21G4s, CD spectroscopy and fluorescence titration analysis were performed. […] The quenching ability of complexes 4–6 to HTG21 and Pu27 G4 DNA fluorescence can be quantitatively estimated by their respective quenching constant (Kq), which was derived from the Stern-Volmer quenching equation. […] Finally, the selective binding of complexes 4–6 towards G4 DNA was analyzed by FRET-melting assays. […] In contrast, the ΔTm value for the F32T+H20M duplex DNA in the presence of complexes 4–6 was 1.18, 1.34, and 0.78 °C under the same conditions (Figure 4A). Altogether, our data indicated complexes 4–6, especially complex 6, is the best binder to G4 DNA, which caused DNA complex displaying the highest thermodynamic stability. […]
(§2) Supplementary Figure 20: FID results onto 4 (A), 5 (B) and 6 (C) toward DNA in sodium cacodylate buffer solution. […]

Assay [3] concerns Pu27 (c-myc) G4. Nature of the assay: FID assay. It is filed as binding. Particulars: for Pu27DC50: FID; for ctDNADC50/Pu27DC50: FID selectivity ratio. Here is the method: as §1, §2
The subject of assay [4] is ctDNA. Nature of the assay: FID assay. In kind it is binding. Conditions: for ctDNADC50: FID; for ctDNADC50/ctDNADC50: FID selectivity ratio. How it is done:
as §1, §2

Assay [5] relates to F21T. Nature of the assay: FRET-melting assay. It is filed as binding. Particulars: F21T 1.0 μM, compound 2.0 μM. How it is done: (§3) We asked whether chiral platinum(II) complexes 4–6 have the ability to bind to G-quadruplex DNA. To address this, FRET assays, CD spectroscopy, G4-FID assays, and fluorescence titration analysis were performed. […] For G4-HTG21, the ^G4DC50 values of complexes 4–6 were 1.23, 1.26 and 0.99 μM, respectively; while, for G4-Pu27, the ^G4DC50 values were 1.01, 0.89, and 0.82 μM, respectively. In addition, the ^ctDNADC50/^G4DC50 ratio of the HTG21 and Pu27 G4s treated with complexes 4–6 was in the range of 50.54-90.65 and 71.56-110.67 folds, respectively. To further evaluate the binding ability of complexes 4–6 to Pu27 and HTG21G4s, CD spectroscopy and fluorescence titration analysis were performed. […] The quenching ability of complexes 4–6 to HTG21 and Pu27 G4 DNA fluorescence can be quantitatively estimated by their respective quenching constant (Kq), which was derived from the Stern-Volmer quenching equation. […] Finally, the selective binding of complexes 4–6 towards G4 DNA was analyzed by FRET-melting assays. […] In contrast, the ΔTm value for the F32T+H20M duplex DNA in the presence of complexes 4–6 was 1.18, 1.34, and 0.78 °C under the same conditions (Figure 4A). Altogether, our data indicated complexes 4–6, especially complex 6, is the best binder to G4 DNA, which caused DNA complex displaying the highest thermodynamic stability.
(§4) Figure 4 Complexes 4–6 induced telomeres damage and inhibited the telomerase activity through directly regulating the mRNA level of c-myc promoter (Pu27) (A) ΔTm data (°C) of 1.0 μM HTG21, Pu39 and c-myc G4s and duplex DNA (F32T+H20M) treated with complexes 1–6 at 0–2.0 μM were evaluated by […]. (B) The levels of TRF2, 53BP1, and TRF1 in BEL-7404 cells treated with complexes 4–6 at 10 μM for 24 h were examined by Western blot. (C) The whole-cell extracts were prepared and analyzed by Western blot analysis using antibodies against TRF2, 53BP1, and TRF1. The same blots were stripped and re-probed with β-actin antibody to show equal protein loading. Western blotting bands from three independent measurements were quantified with Image J. in (B). (D) The influence of complexes 4–6 (10 μM) on the telomerase activity of the BEL-7404 cells for 24 h. (E) The investigations of the expression of c-myc and hTERT in the BEL-7404 tumor cells when incubated with complexes 4–6 (10 μM) for 24 h. C-myc and hTERT protein levels in BEL-7404 cells were analyzed by western blot. (F) The whole-cell extracts were prepared and analyzed by Western blot analysis using antibodies against c-myc and hTERT. The same blots were stripped and re-probed with β-actin antibody to show equal protein loading. Western blotting bands from three independent measurements were quantified with Image J. in (E). (G) qRT-PCR analysis of the expression levels of hTERT and c-myc in the BEL-7404 cells treated with complexes 4–6 (10 μM). The BEL-7404 cells (5×10^5) were treated with complexes 4–6 (10 μM) for 24 h. The total RNA in the cells was extracted and subjected to reverse transcription, followed by PCR for c-myc, hTERT, and GAPDH (control). (H) and (I) The investigations of the role of the transfections of EGFP plasmid vector (H) and c-myc plasmid vector (I) in the BEL-7404 tumor cells when incubated with complexes 4–6 (10 μM) for 24 h. First, 2.0 μg of EGFP-carrying plasmid vector or 2.0 μg of c-myc-carrying plasmid vector was cotransfected into BEL-7404 cells using Lipofectamine 2000 (Invitrogen, Grand Island, NY, USA). Complexes 4–6 (10 μM) were then added, respectively, into medium at 6.0 h after transfection of c-myc plasmid. At another 24 h after treatment with complexes 4–6 (10 μM), these cells were imaged using Nikon TE2000 (Japan) scanning fluorescent microscope or were examined by Multimodel Plate Reader with luciferase reporter gene assay kit. […]

Assay [6] deals with F32T+H20M duplex DNA. Nature of the assay: FRET-melting assay. In kind it is binding. Conditions: F32T+H20M duplex DNA 1.0 μM, compound 2.0 μM. Here is the method:
as §3, §4

Assay [7] concerns FPu18T. Nature of the assay: FRET-melting assay. In kind it is binding. Conditions: FPu18T 1.0 μM, compound 2.0 μM. Here is the method: as §3, §4

For the molecule `O=C(NCC(O)CO)c1cnc2c3c(cccc13)-c1ccccc1C2=O.[Cl-].[Cl-].[Pt+2]` (racemic) [ligand 1, R/S-(±)-FOA], the shift in melting temperature (ΔTm) in assay [1] was 19.15 °C.

Regarding `O=C(NC[C@@H](O)CO)c1cnc2c3c(cccc13)-c1ccccc1C2=O.[Cl-].[Cl-].[Pt+2]` [ligand 2, R-(+)-FOA], the ΔTm in assay [1] is 16.66 °C.

For the molecule `O=C(NC[C@H](O)CO)c1cnc2c3c(cccc13)-c1ccccc1C2=O.[Cl-].[Cl-].[Pt+2]` [ligand 3, S-(–)-FOA], the ΔTm in assay [1] stood at 23.01 °C.

Consider cis-[PtCl2(R-(+)-FOA)] [complex 5], for which, in assay [2], the HTG21DC50 was 1.26 µM and the ctDNADC50/HTG21DC50 was 50.54. In assay [3], the Pu27DC50 turned out to be 0.89 µM and the ctDNADC50/Pu27DC50 came to 71.56. In assay [4], the ctDNADC50 came out at 63.69 µM and the ctDNADC50/ctDNADC50 came out at 1.00. In assay [5], the ΔTm is 12.95 °C. The thermal shift (ΔTm) in assay [6] came out at 1.34 °C. The thermal shift (ΔTm) in assay [7] stood at 16.66 °C.

Take cis-[PtCl2(R/S-(±)-FOA)] [complex 4]: in assay [2], the HTG21DC50 came out at 1.23 µM and the ctDNADC50/HTG21DC50 came out at 61.68. Further, in assay [3], the Pu27DC50 was found to be 1.01 µM and the ctDNADC50/Pu27DC50 is given as 75.11. Further, in assay [4], the ctDNADC50 stood at 75.87 µM and the ctDNADC50/ctDNADC50 is given as 1.00. Moreover, the ΔTm in assay [5] came to 13.19 °C. Also, the shift in melting temperature (ΔTm) in assay [6] stood at 1.18 °C. Moreover, in assay [7], the shift in melting temperature (ΔTm) is 19.15 °C.

Consider cis-[PtCl2(S-(–)-FOA)] [complex 6], for which the HTG21DC50 in assay [2] was 0.99 µM. In assay [3], the Pu27DC50 was 0.82 µM. In assay [3], the ctDNADC50/Pu27DC50 came out at 110.67. Besides, the ctDNADC50 in assay [4] came to 90.73 µM. In assay [4], the ctDNADC50/ctDNADC50 is given as 1.00. The thermal shift (ΔTm) came to 20.07 °C in assay [5], 0.78 °C in assay [6] and 23.01 °C in assay [7].
